# Results reported in PubChem BioAssay (NCI).
#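 In this assay, cells in 96-well plates receive the compound at five concentrations for 48 hours. Endpoints are linearly interpolated between the surrounding concentrations. GI50: concentration for 50% inhibition of growth. TGI denotes the concentration required for complete inhibition of growth.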
# Experiments:
# Assay in all cases: inhibition of tumour cell growth, NCI panel, 48 h
# OVCAR-3 ovarian = test system: OVCAR-3 ovarian
# MCF7 breast = test system: MCF7 breast
# HCT-116 colon = test system: HCT-116 colon
# UACC-62 melanoma = test system: UACC-62 melanoma
# IGROV1 ovarian = test system: IGROV1 ovarian
# NCI-H460 lung = test system: NCI-H460 lung
# MALME-3M melanoma = test system: MALME-3M melanoma
# OVCAR-4 ovarian = test system: OVCAR-4 ovarian
# PC-3 prostate = test system: PC-3 prostate
# BT-549 breast = test system: BT-549 breast
# SK-OV-3 ovarian = test system: SK-OV-3 ovarian
# SNB-75 CNS = test system: SNB-75 CNS
# UACC-257 melanoma = test system: UACC-257 melanoma
# HOP-92 NSCLC = test system: HOP-92 NSCLC
# T-47D breast = test system: T-47D breast
# SW-620 colon = test system: SW-620 colon
# EKVX NSCLC = test system: EKVX NSCLC
# HT29 colon = test system: HT29 colon
# NCI/ADR-RES ovarian = test system: NCI/ADR-RES ovarian
# NCI-H226 lung = test system: NCI-H226 lung
# HCC-2998 colon = test system: HCC-2998 colon
# NCI-H522 lung = test system: NCI-H522 lung
# ACHN renal = test system: ACHN renal
# 786-0 renal = test system: 786-0 renal
# SF-268 CNS = test system: SF-268 CNS
# SK-MEL-28 melanoma = test system: SK-MEL-28 melanoma
# HL-60(TB) leukemia = test system: HL-60(TB) leukemia
# RPMI-8226 leukemia = test system: RPMI-8226 leukemia
# MDA-MB-231 breast = test system: MDA-MB-231 breast
# HOP-62 NSCLC = test system: HOP-62 NSCLC
# CAKI-1 renal = test system: CAKI-1 renal
# OVCAR-8 ovarian = test system: OVCAR-8 ovarian
# M14 melanoma = test system: M14 melanoma
# RXF 393 renal = test system: RXF 393 renal
# NCI-H23 lung = test system: NCI-H23 lung
# SF-295 CNS = test system: SF-295 CNS
# U251 CNS = test system: U251 CNS
# SK-MEL-2 melanoma = test system: SK-MEL-2 melanoma
# UO-31 renal = test system: UO-31 renal
# SNB-19 CNS = test system: SNB-19 CNS
# LOX IMVI melanoma = test system: LOX IMVI melanoma
# SN12C renal = test system: SN12C renal
# TK-10 renal = test system: TK-10 renal
# DU-145 prostate = test system: DU-145 prostate
# OVCAR-5 ovarian = test system: OVCAR-5 ovarian
# HS 578T breast = test system: HS 578T breast
# MDA-MB-468 breast = test system: MDA-MB-468 breast
# SR leukemia = test system: SR leukemia
# SK-MEL-5 melanoma = test system: SK-MEL-5 melanoma
# SF-539 CNS = test system: SF-539 CNS
# A549 NSCLC = test system: A549 NSCLC
# MDA-MB-435 = test system: MDA-MB-435
# HCT-15 colon = test system: HCT-15 colon
# CCRF-CEM leukemia = test system: CCRF-CEM leukemia
# MOLT-4 leukemia = test system: MOLT-4 leukemia
# KM12 colon = test system: KM12 colon
# COLO 205 colon = test system: COLO 205 colon
# A498 renal = test system: A498 renal
# K-562 leukemia = test system: K-562 leukemia
structure (smiles),measurement,setting,value
Cc1ccc(-c2nc3ccc(C(=O)N=Nc4c(O)[nH]c5ccc(Cl)cc45)cc3[nH]2)cc1,GI50,OVCAR-3 ovarian,7.29 µM
same,TGI,OVCAR-3 ovarian,74.4 µM
same,GI50,MCF7 breast,5.03 µM
same,TGI,MCF7 breast,47.4 µM
same,GI50,HCT-116 colon,16 µM
same,TGI,HCT-116 colon,> 100 µM
same,GI50,UACC-62 melanoma,> 100 µM
same,TGI,UACC-62 melanoma,> 100 µM
same,GI50,IGROV1 ovarian,81.9 µM
same,TGI,IGROV1 ovarian,> 100 µM
same,GI50,NCI-H460 lung,8.67 µM
same,TGI,NCI-H460 lung,> 100 µM
same,GI50,MALME-3M melanoma,15.6 µM
same,TGI,MALME-3M melanoma,43.8 µM
same,GI50,OVCAR-4 ovarian,15 µM
same,TGI,OVCAR-4 ovarian,51.3 µM
same,GI50,PC-3 prostate,13.4 µM
same,TGI,PC-3 prostate,39.2 µM
same,GI50,BT-549 breast,96.3 µM
same,TGI,BT-549 breast,> 100 µM
same,GI50,SK-OV-3 ovarian,> 100 µM
same,TGI,SK-OV-3 ovarian,> 100 µM
same,GI50,SNB-75 CNS,66.5 µM
same,TGI,SNB-75 CNS,> 100 µM
same,GI50,UACC-257 melanoma,> 100 µM
same,TGI,UACC-257 melanoma,> 100 µM
same,GI50,HOP-92 NSCLC,72.6 µM
same,TGI,HOP-92 NSCLC,> 100 µM
same,GI50,T-47D breast,44.5 µM
same,TGI,T-47D breast,> 100 µM
same,GI50,SW-620 colon,3.3 µM
same,TGI,SW-620 colon,26 µM
same,GI50,EKVX NSCLC,> 100 µM
same,TGI,EKVX NSCLC,> 100 µM
same,GI50,HT29 colon,17.6 µM
same,TGI,HT29 colon,> 100 µM
same,GI50,NCI/ADR-RES ovarian,> 100 µM
same,TGI,NCI/ADR-RES ovarian,> 100 µM
same,GI50,NCI-H226 lung,> 100 µM
same,TGI,NCI-H226 lung,> 100 µM
same,GI50,HCC-2998 colon,18.7 µM
same,TGI,HCC-2998 colon,> 100 µM
same,GI50,NCI-H522 lung,4.3 µM
same,TGI,NCI-H522 lung,21.3 µM
same,GI50,ACHN renal,> 100 µM
same,TGI,ACHN renal,> 100 µM
same,GI50,786-0 renal,20.9 µM
same,TGI,786-0 renal,65.4 µM
same,GI50,SF-268 CNS,24.2 µM
same,TGI,SF-268 CNS,> 100 µM
same,GI50,SK-MEL-28 melanoma,36.1 µM
same,TGI,SK-MEL-28 melanoma,> 100 µM
same,GI50,HL-60(TB) leukemia,> 100 µM
same,TGI,HL-60(TB) leukemia,> 100 µM
same,GI50,RPMI-8226 leukemia,67.7 µM
same,TGI,RPMI-8226 leukemia,> 100 µM
same,GI50,MDA-MB-231 breast,10.7 µM
same,TGI,MDA-MB-231 breast,40.3 µM
same,GI50,HOP-62 NSCLC,78.4 µM
same,TGI,HOP-62 NSCLC,> 100 µM
same,GI50,CAKI-1 renal,> 100 µM
same,TGI,CAKI-1 renal,> 100 µM
same,GI50,OVCAR-8 ovarian,> 100 µM
same,TGI,OVCAR-8 ovarian,> 100 µM
same,GI50,M14 melanoma,57.8 µM
same,TGI,M14 melanoma,> 100 µM
same,GI50,RXF 393 renal,> 100 µM
same,TGI,RXF 393 renal,> 100 µM
same,GI50,NCI-H23 lung,6.63 µM
same,TGI,NCI-H23 lung,28.9 µM
same,GI50,SF-295 CNS,> 100 µM
same,TGI,SF-295 CNS,> 100 µM
same,GI50,U251 CNS,25.3 µM
same,TGI,U251 CNS,> 100 µM
same,GI50,SK-MEL-2 melanoma,> 100 µM
same,TGI,SK-MEL-2 melanoma,> 100 µM
same,GI50,UO-31 renal,> 100 µM
same,TGI,UO-31 renal,> 100 µM
same,GI50,SNB-19 CNS,30.1 µM
same,TGI,SNB-19 CNS,> 100 µM
same,GI50,LOX IMVI melanoma,4.81 µM
same,TGI,LOX IMVI melanoma,18.9 µM
same,GI50,SN12C renal,38.9 µM
same,TGI,SN12C renal,> 100 µM
same,GI50,TK-10 renal,> 100 µM
same,TGI,TK-10 renal,> 100 µM
same,GI50,DU-145 prostate,5.57 µM
same,TGI,DU-145 prostate,88.4 µM
same,GI50,OVCAR-5 ovarian,25.5 µM
same,TGI,OVCAR-5 ovarian,> 100 µM
same,GI50,HS 578T breast,31.2 µM
same,TGI,HS 578T breast,> 100 µM
same,GI50,MDA-MB-468 breast,5.28 µM
same,TGI,MDA-MB-468 breast,21.8 µM
same,GI50,SR leukemia,> 100 µM
same,TGI,SR leukemia,> 100 µM
same,GI50,SK-MEL-5 melanoma,> 100 µM
same,TGI,SK-MEL-5 melanoma,> 100 µM
same,GI50,SF-539 CNS,> 100 µM
same,TGI,SF-539 CNS,> 100 µM
same,GI50,A549 NSCLC,56.8 µM
same,TGI,A549 NSCLC,> 100 µM
same,GI50,MDA-MB-435,10.1 µM
same,TGI,MDA-MB-435,94.9 µM
same,GI50,HCT-15 colon,> 100 µM
same,TGI,HCT-15 colon,> 100 µM
same,GI50,CCRF-CEM leukemia,5.77 µM
same,TGI,CCRF-CEM leukemia,> 100 µM
same,GI50,MOLT-4 leukemia,4.12 µM
same,TGI,MOLT-4 leukemia,> 100 µM
same,GI50,KM12 colon,> 100 µM
same,TGI,KM12 colon,> 100 µM
same,GI50,COLO 205 colon,24.6 µM
same,TGI,COLO 205 colon,> 100 µM
same,GI50,A498 renal,> 100 µM
same,TGI,A498 renal,> 100 µM
same,GI50,K-562 leukemia,8.85 µM
same,TGI,K-562 leukemia,> 100 µM
